Measurements reported in the NIST ThermoML archive (doi:10.1021/je700322p).
Numbers after ± are expanded uncertainties.

Conditions: Liquid

CCOC(C)=O [ethyl acetate]
Conditions | vapor or sublimation pressure [kPa]
310 K | 21.72 ± 0.17
313 K | 24.78 ± 0.17
316 K | 28.18 ± 0.18
319 K | 31.95 ± 0.18
322 K | 36.12 ± 0.19
325 K | 40.73 ± 0.19
328 K | 45.8 ± 0.2
331 K | 51.36 ± 0.2
334 K | 57.46 ± 0.21
337 K | 64.13 ± 0.22
340 K | 71.4 ± 0.23
343 K | 79.32 ± 0.24
346 K | 87.93 ± 0.25
349 K | 97.26 ± 0.26
352 K | 107.36 ± 0.27
355 K | 118.27 ± 0.29
358 K | 130.03 ± 0.3
359 K | 134.15 ± 0.31

CCO [ethanol]
Conditions | vapor or sublimation pressure [kPa]
321 K | 26.41 ± 0.18
324 K | 30.53 ± 0.18
327 K | 35.19 ± 0.19
330 K | 40.44 ± 0.19
333 K | 46.34 ± 0.2
336 K | 52.96 ± 0.21
339 K | 60.35 ± 0.21
342 K | 68.6 ± 0.22
345 K | 77.77 ± 0.23
348 K | 87.96 ± 0.25
351 K | 99.24 ± 0.26
354 K | 111.7 ± 0.28
357 K | 125.44 ± 0.3
359 K | 135.37 ± 0.31
